Results as given in patent EP0005658A1, “Peptide derivatives analogue to encephalines, process for their preparation and their therapeutical application” (Laboratoire le Brun S.A. Société dite:, priority 1978, dated 1979).
Where “and” joins values, the source holds several entries; their conditions need not be identical. Equal entries are not always repeated.

Experiments:
rat [1] = assay: Castor oil diarrhoea test in the rat; format: in vivo
iléon de cobaye = iléon de cobaye (Cavia porcellus, UniProt A0ACM8Q262); assay: cell-based; format: cell-based; details: for Activité Morphine =100: activity relative to morphine (= 100) in concomitant tests
iléon de cobaye, sequence (A0ACM8Q262 1-400): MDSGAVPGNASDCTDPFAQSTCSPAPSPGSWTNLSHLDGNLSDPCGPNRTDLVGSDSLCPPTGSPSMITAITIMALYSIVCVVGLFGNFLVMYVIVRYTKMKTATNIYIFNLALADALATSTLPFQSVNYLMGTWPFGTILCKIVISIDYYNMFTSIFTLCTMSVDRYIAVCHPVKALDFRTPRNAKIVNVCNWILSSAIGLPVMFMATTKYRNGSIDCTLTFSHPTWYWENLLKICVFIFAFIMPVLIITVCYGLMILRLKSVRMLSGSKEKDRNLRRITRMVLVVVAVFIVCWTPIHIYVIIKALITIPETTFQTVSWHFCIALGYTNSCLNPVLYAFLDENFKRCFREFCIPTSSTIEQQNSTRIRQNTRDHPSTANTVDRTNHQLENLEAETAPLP
Description: I. Action analgésique par rapport à la morphine comme substance de référence qui a été contrôlée • a) Sur organe isolé. - iléon de cobaye
On a utilisé la technique de stimulation transmu- rale de l'iléon de cobaye de PATON (W.D.M. PATON, "The rés- ponse of the guinea-pig ileum to electrical stimulation by coaxial electrodes" - J. Physiol. (London), 127, 40P-41P (1955) et PATON (W.D.M.) - Brit.J. Pharmacol. 11).
• - Les essais ont été réalisés dans une cuve de 35 ml irriguée par une solution de KREBS. • - Les stimulations électriques, supramaximales (6 par minute - […]) étaient ajustées à chaque essai. Courant rectangulaire - durée-0,5 milliseconde. • - Les concentrations des différents produits étudiés, ainsi que celles de la morphine qui a servi de corps de référence, sont exprimées en nanomoles (nM) par litre. • - Pour chaque concentration, le temps de contact a été de 3 minutes. Chaque essai était séparé du suivant par une période de 10 à 20 minutes. • - Les résultats sont exprimés en pourcentage d'inhibition de la concentration consécutive à la stimulation électri--que de l'iléon. On a ensuite calculé les doses actives 50 par la méthode de Parker et Waud (J. of pharmacology, 1971, 177, n°4) qui ont été comparées à celle de la morphine dans des essais concomitants.

Vas déferens de souris = Vas déferens de souris (Mus musculus, UniProt P32300); assay: Transmural electrical stimulation of mouse vas deferens (Hughes and Kosterlitz); format: cell-based; details: contact time 3 minutes, read-out: % d'inhibition
Vas déferens de souris, sequence (P32300 whole entry): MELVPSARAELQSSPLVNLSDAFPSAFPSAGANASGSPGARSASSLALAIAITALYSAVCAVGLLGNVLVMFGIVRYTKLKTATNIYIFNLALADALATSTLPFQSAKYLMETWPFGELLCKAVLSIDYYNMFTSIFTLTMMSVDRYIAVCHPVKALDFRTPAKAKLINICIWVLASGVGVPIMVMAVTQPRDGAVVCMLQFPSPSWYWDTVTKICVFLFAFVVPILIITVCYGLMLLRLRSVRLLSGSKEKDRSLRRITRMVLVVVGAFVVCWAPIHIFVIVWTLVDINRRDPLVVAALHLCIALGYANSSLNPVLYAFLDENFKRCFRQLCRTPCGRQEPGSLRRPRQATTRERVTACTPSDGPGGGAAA
Description: On a utilisé une technique de stimulation transmu- rale du canal différent de la souris, adaptée à celle décrite par HUCHES et KOSTERLITZ (J.HUGUES, H.W.KOSTERLITZ and Frances M.LESLIE, "Effect of morphine ou adrenergic transmission in the mouse vas deferens. Assessment of ago- nist and antagonist potencies of narcotic analgesics".-Br J. Pharmac. 53 371-381 (1975).
• - Les essais ont été réalisés dans une cuve de 7 ml irriguée par une solution de KREBS. • - Les stimulations électriques, supramaximales (6 par minute) étaient ajustées à chaque essai. • - Les concentrations des différents produits étudiés sont exprimées en nM par litre. • - Pour chaque concentration le temps de contact a été de 3 minutes. Dans les cas où le maximum d'inhibition a été atteint en un temps plus court, le fait a été signalé. Chaque essai était séparé du suivant par une période de 10 à 20 minutes. • - Les résultats sont exprimés en pourcentage d'inhibition de la concentration consécutive à la stimulation électrique du canal déférent. On a ensuite calculé les doses actives 50 par la méthode de Parker & Wand (J.Pharm. Exper. Therap.96-99 (1949).

rat [2] = assay: Catalepsy in the rat (psychotropic action); format: in vivo
Description: Elle a été évaluée par la recherche d'une catalepsie chez le rat.
Ces essais ont été réalisés avec des rats femelles indexes d'organisées pathogènes spécifiques pesant de 200 à 220 g.
L'effet cataleptique est mesuré en suspendant le rat par ses pattes antérieures au rebord de la cage d'expérience : un rat cataleptique reste dans cette position alors qu'un animal normal l'abandonne aussitôt, voire ne la prend pas du tout.
La catalepsie est appréciée de la façon suivante: • 0 : pas de catalepsie • 1 : catalepsie liminaire • 2 : catalepsie d'intensité moyenne • […] : catalepsie très prononcée
Les animaux sont traités par voie sous cutanée.
Les expériences ont été effectuées à l'aveugle, l'observateur ignorant les traitements.

[3] = target: sites de liaison à haute et moyenne affinité de la leucine-enképhaline 3-R de membranes striatales de souris; assay: Competition with tritiated Leu-enkephalin binding on mouse striatal membranes; details: displacement of a fixed concentration of Leucine-Enképhaline 3-H
Description: On a déterminé le pouvoir compétiteur des dérivés de l'invention vis-à-vis des sites de liaison à haute et moyenne affinité de la leucine-enképhaline 3-R de membranes striatales de souris.
Les conditions de préparation des membranes et d'incubation ont été les mêmes que celles qui sont décrites dans Audigier et Coll. (C. Acad. Sciences plus Euro- pean J. of Pharmacol.).
Des concentrations croissantes des divers composés synthétisés ont été opposées à une concentration fixe de Leucine-Enképhaline 3-H et les déplacements observés ont permis dans chaque cas de déterminer une constante d'inhi- bition (Ki).

[4] = Acute toxicity in the mouse; design: species or system souris; details: in vivo, IV route, read-out: D.L. 5a
Description: Les dérivés de formule générale I bénéficient d'une excellente tolérance et d'une faible toxicité qui a été plus particulièrement étudiée sur lés dérivés N° 12 et 13, qui ont fait l'objet d'une épreuve de toxicité aiguë chez la souris.
Les D.L. 5a obtenues sont respectivement de : • 725 ± 25 mg/kg par voie IV pour le dérivé.n° 12. • et 892 ± 31 mg/kg "" " pour le dérivé n° 13.

souris = assay: Hot plate test in the mouse (analgesia); details: 10 mg/kg compared with morphine 1 mg/kg, taking molarities into account
[5] = 2 heures after product, oral 3 mg/kg, 10 rats
[6] = 2 heures after product, oral 10 mg/kg, 10 rats (Codéine base: 20 rats)
[7] = 2 heures after product, oral 30 mg/kg, 10 rats
[8] = 4 heures after product, oral 3 mg/kg, 10 rats
[9] = 4 heures after product, oral 10 mg/kg, 10 rats (Codéine base: 20 rats)
[10] = 4 heures after product, oral 30 mg/kg, 10 rats

COc1ccc2c3c1O[C@H]1[C@@H](O)C=C[C@H]4[C@@H](C2)N(C)CC[C@@]341 [Codéine base, Codéine]
Nombre d'animaux non diarrhéiques (rat [1]; [5]): 7 | Nombre d'animaux non diarrhéiques (rat [1]; [6]): 19 | Nombre d'animaux non diarrhéiques (rat [1]; [7]): 10 | Nombre d'animaux non diarrhéiques (rat [1]; [8]): 4 | Nombre d'animaux non diarrhéiques (rat [1]; [9]): 14 | Nombre d'animaux non diarrhéiques (rat [1]; [10]): 8

CSCC[C@H](NC(=O)[C@H](Cc1ccccc1)NC(=O)CNC(=O)[C@@H](C)NC(=O)[C@@H](N)Cc1ccc(O)cc1)C(=O)NCCNS(=O)(=O)c1cccc2c(N(C)C)cccc12 [Dérivé n° 12, Tyr-D Ala- Gly-Phe-Met-NH-(CH2)2-NH-SO2 -X, dans lequel X est un groupe 5 diméthylamino-α-naphtyle]
inhibition at 0.012 µM (iléon de cobaye; 12 nM/l, contact time 3 minutes, read-out: % d'inhibition): 28.3% | inhibition at 0.018 µM (iléon de cobaye; 18 nM/l, contact time 3 minutes, read-out: % d'inhibition): 35.5% | inhibition at 0.024 µM (iléon de cobaye; 24 nM/l, contact time 3 minutes, read-out: % d'inhibition): 51.3% | inhibition at 0.06 µM (iléon de cobaye; 60 nM/l, contact time 3 minutes, read-out: % d'inhibition): 76.3% | Activité Morphine =100 (iléon de cobaye): 147 | inhibition at 0.0012 µM (Vas déferens de souris; 1,2 nM/l): 41.8% | inhibition at 0.0018 µM (Vas déferens de souris; 1,8 nM/l): 50% | inhibition at 0.0024 µM (Vas déferens de souris; 2,4 nM/l): 63% | D.A. 50/ sous cut. (rat [2]; catalepsy, subcutaneous route, female rats): 5 mg/kg | Nombre d'animaux non diarrhéiques (rat [1]; [5]): 6 | Nombre d'animaux non diarrhéiques (rat [1]; [6]): 10 | Nombre d'animaux non diarrhéiques (rat [1]; [7]): 10 | Nombre d'animaux non diarrhéiques (rat [1]; [8]): 3 | Nombre d'animaux non diarrhéiques (rat [1]; [9]): 6 | Nombre d'animaux non diarrhéiques (rat [1]; [10]): 10 | action antidiarrhéique (rat [1]; statement in words, 30 mg/kg, four hours): protège tous les animaux | Ki [3]: 5 ± 2 nM | LD50 [4]: 725 ± 25 mg/kg | coefficient d'activité (souris): ~35%

CSCC[C@H](NC(=O)[C@H](Cc1ccccc1)NC(=O)CNC(=O)[C@@H](C)NC(=O)[C@@H](N)Cc1ccc(O)cc1)C(=O)NCCCCCNS(=O)(=O)c1cccc2c(N(C)C)cccc12 [Dérivé n° 13]
inhibition at 0.15 µM (iléon de cobaye; 150 nM/l, contact time 3 minutes, read-out: % d'inhibition): 34.2% | inhibition at 0.3 µM (iléon de cobaye; 300 nM/l, contact time 3 minutes, read-out: % d'inhibition): 46.4% | inhibition at 0.6 µM (iléon de cobaye; 600 nM/l, contact time 3 minutes, read-out: % d'inhibition): 68.1% | Activité Morphine =100 (iléon de cobaye): 12,7 | inhibition at 0.6 µM (Vas déferens de souris; 600 nM/l): 38% | inhibition at 0.75 µM (Vas déferens de souris; 750 nM/l): 55% | inhibition at 0.9 µM (Vas déferens de souris; 900 nM/l): 83.3% | inhibition at 1.5 µM (Vas déferens de souris; 1 500 nM/l): 90.5% | Ki [3]: 21 ± 5 nM | LD50 [4]: 892 ± 31 mg/kg

O=C(CCCN1CCC(O)(c2ccc(Cl)cc2)CC1)c1ccc(F)cc1 [Halopéridol]
ED50 (rat [2]; Rattus norvegicus, sc, catalepsy, subcutaneous route, female rats, read-out: D.A. 50/ sous cut.): 0.2 mg/kg

CC(C)C[C@H](NC(=O)[C@H](Cc1ccccc1)NC(=O)CNC(=O)CNC(=O)[C@@H](N)Cc1ccc(O)cc1)C(=O)O [Leu-enképhaline, reference compound]
Ki [3]: 5 ± 1.8 nM

CN1CC[C@]23c4c5ccc(O)c4O[C@H]2[C@@H](O)C=C[C@H]3[C@H]1C5 [Morphine]
D.A. 50/ sous cut. (rat [2]; rat, in vivo, sc): 2,5 mg/kg | Nombre d'animaux non diarrhéiques (rat [1]; rat, in vivo, po, 3 mg/kg): 9 and 5 | Nombre d'animaux non diarrhéiques (rat [1]; rat, in vivo, po, 10 mg/kg): 10 and 8
